Numbered stars: 1 amine (or outer) side, 2 acyl side, 3 side chain; on linkers, the order of the positions; unused ones are H or OH. Bridge positions count the residues as written; N and C are the ends. Square brackets hold non-standard residues; d marks the D form. Peptide text beside a SMILES is read from it. * marks the point of attachment. hPhe(3,5-F2-4-CF3) = N[C@@H](CCc1cc(F)c(C(F)(F)F)c(F)c1)C(=O)O; hPhe(3-Cl-4-CF3) = N[C@@H](CCc1ccc(C(F)(F)F)c(Cl)c1)C(=O)O; NEtPhe(4-CF3) = CCN[C@@H](Cc1ccc(C(F)(F)F)cc1)C(=O)O; hPhe(4-CF3) = N[C@@H](CCc1ccc(C(F)(F)F)cc1)C(=O)O; 3Oxa8azabicyclo(3.2.1)octane = C1CC2COCC1N2*; NMePhe(4-Cl) = CN[C@@H](Cc1ccc(Cl)cc1)C(=O)O; hPhe(3-Cl) = N[C@@H](CCc1cccc(Cl)c1)C(=O)O; NMedβ3hAla = C[C@H](CC(=O)[*:2])N(C)[*:1]; NMeGly(cPent) = CN[C@H](C(=O)O)C1CCCC1; Pro(4,4-F2) = O=C(O)[C@@H]1CC(F)(F)CN1; dβ3hPip = O=C(C[C@H]1CCCCN1[*:1])[*:2]; NMeCha = CN[C@@H](CC1CCCCC1)C(=O)O; NMeAhp(2) = CCCCC[C@H](NC)C(=O)O; NMeChg = CN[C@H](C(=O)O)C1CCCCC1; Gly(cBu) = N[C@H](C(=O)O)C1CCC1; NMeD = CN[C@@H](CC(=O)O)C(=O)O; NMeL = CN[C@@H](CC(C)C)C(=O)O; NMeV = CN[C@H](C(=O)O)C(C)C; d(β3hA) = C[C@@H](N)CC(=O)O; Azetidin(1-yl) = C1CN(*)C1; NMeS = CN[C@@H](CO)C(=O)O; NMeA = CN[C@@H](C)C(=O)O; Piperidide = C1CCN(*)CC1; Pyrrolidide = C1CCN(*)C1; Ac5c = NC1(C(=O)O)CCCC1; Aze = O=C(O)[C@@H]1CCN1; Ac4c = NC1(C(=O)O)CCC1; Aib = CC(C)(N)C(=O)O; NEtG = CCNCC(=O)O; Sar = CNCC(=O)O; Propyl = CCC*

Usually IC50 stands for the concentration needed to halve the response being measured.

The assay concerns the target protein-protein interaction between Kras and SOS1 (biotin-tagged human Kras loaded with GDP, His-tagged human SOS1) (Homo sapiens (Human), UniProt P01116, G12D). Kind of assay: Protein-protein interaction inhibition between Kras and SOS1 (KrasG12D-SOS PPI) using AlphaScreen.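 Note: kras produced in E. coli, Ni-coupled donor beads and streptavidin acceptor beads, excitation 680 nm with emission detected at 520–620 nm via singlet oxygen transfer.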 It is filed as biochemical. To be noted: AlphaScreen; biotin-tagged human Kras loaded with GDP, His-tagged human SOS1; read-out: KRAS G12D-SOS PPI IC50. Background: Bead proximity is the source of the signal in Alpha formats.
Take `CC[C@H](C)[C@@H]1NC(=O)[C@H](CC(C)C)N(C)C(=O)C[C@@H](C)N(C)C(=O)[C@H](C2CCCCC2)N(C)C(=O)C2(CCC2)NC(=O)[C@@H]2CC(F)(F)CN2C(=O)[C@H](CCc2ccc(C(F)(F)F)c(Cl)c2)NC(=O)CN(C)C(=O)[C@H](Cc2ccc(C(F)(F)F)cc2)N(CC)C(=O)[C@@H]2CCN2C(=O)[C@H](C)NC1=O` [Compound 138] (cyclo(A[Aze][NEtPhe(4-CF3)][Sar][hPhe(3-Cl-4-CF3)][Pro(4,4-F2)][Ac4c][NMeChg][NMedβ3hAla][NMeL]I)): the IC50 stood at 44 nM.

Regarding `CC[C@H](C)[C@@H]1NC(=O)[C@H](C)N(C)C(=O)C[C@@H](C)NC(=O)[C@H](CC(C)C)N(C)C(=O)C(C)(C)NC(=O)[C@H](CC(C)C)N(C)C(=O)[C@H](CCc2cccc(Cl)c2)NC(=O)CN(C)C(=O)[C@H](Cc2ccc(Cl)cc2)N(C)C(=O)CN(C)C(=O)CN(C)C1=O` [Compound 153] (cyclo([Aib][NMeL][d(β3hA)][NMeA]I[Sar][Sar][NMePhe(4-Cl)][Sar][hPhe(3-Cl)][NMeL])), the IC50 was 60 nM. Under `CCCCC[C@H]1C(=O)N[C@@H]([C@@H](C)CC)C(=O)N[C@@H](C)C(=O)N2CC[C@H]2C(=O)N(C)[C@@H](CC2CCCCC2)C(=O)N(C)CC(=O)N[C@@H](CCc2ccc(C(F)(F)F)c(Cl)c2)C(=O)N2CCC[C@H]2C(=O)NC2(CCCC2)C(=O)N(C)[C@@H](C2CCCC2)C(=O)N(C)[C@H](C(=O)N2CCC2)CC(=O)N1C` [Compound 155] ([NMeAhp(2)]IA[Aze][NMeCha][Sar][hPhe(3-Cl-4-CF3)]P[Ac5c][NMeGly(cPent)][NMeD]-{Azetidin(1-yl)}; lactam N-11) stands 1.6 nM.

As to `CC(C)C[C@H]1C(=O)N[C@@H](C2CCC2)C(=O)N(C)[C@@H](C)C(=O)N2CC[C@H]2C(=O)N(C)[C@@H](CC2CCCCC2)C(=O)N(C)CC(=O)N[C@@H](CCc2ccc(C(F)(F)F)c(Cl)c2)C(=O)N2CCC[C@H]2C(=O)NC2(CCCC2)C(=O)N(C)[C@@H](C(C)C)C(=O)N(C)[C@H](C(=O)N2CCCCC2)CC(=O)N1C` [Compound 157] ([NMeL][Gly(cBu)][NMeA][Aze][NMeCha][Sar][hPhe(3-Cl-4-CF3)]P[Ac5c][NMeV][NMeD]-Piperidide; lactam N-11), the half-inhibitory concentration (IC50) is 7.5 nM. For the molecule `CC[C@H](C)[C@@H]1NC(=O)[C@H](CC(C)C)N(C)C(=O)C[C@@H](C(=O)N2CCCCC2)N(C)C(=O)[C@H](C2CCCCC2)N(C)C(=O)C2(CCCC2)NC(=O)CN(CC)C(=O)[C@H](CCc2ccc(C(F)(F)F)c(Cl)c2)NC(=O)CN(C)C(=O)[C@H](CC2CCCCC2)N(C)C(=O)CN(C)C(=O)CN(C)C1=O` [Compound 160] ([NMeL]I[Sar][Sar][NMeCha][Sar][hPhe(3-Cl-4-CF3)][NEtG][Ac5c][NMeChg][NMeD]-Piperidide; lactam N-11), the IC50 turned out to be 1 nM.

`CCCCC[C@H]1C(=O)N[C@@H]([C@@H](C)CC)C(=O)N[C@@H](C)C(=O)N2CC[C@H]2C(=O)N(C)[C@@H](COCCC)C(=O)N(C)CC(=O)N[C@@H](CCc2ccc(C(F)(F)F)c(Cl)c2)C(=O)N2CCC[C@H]2C(=O)NC2(CCCC2)C(=O)N(C)[C@@H](C2CCCC2)C(=O)N(C)[C@H](C(=O)N2C3CCC2COC3)CC(=O)N1C` [Compound 163] ([NMeAhp(2)]IA[Aze][NMeS](Propyl)[Sar][hPhe(3-Cl-4-CF3)]P[Ac5c][NMeGly(cPent)][NMeD]-{3Oxa8azabicyclo(3.2.1)octane}; lactam N-11): the half-maximal inhibitory concentration (IC50) came to 6.1 nM. With `CC[C@H](C)[C@@H]1NC(=O)[C@H](C)N(C)C(=O)C[C@@H](C)N(C)C(=O)[C@H](CC(C)C)NC(=O)C(C)(C)NC(=O)[C@H](CC(C)C)NC(=O)[C@H](CCc2ccc(C(F)(F)F)cc2)NC(=O)CN(C)C(=O)[C@H](Cc2ccc(Cl)cc2)N(C)C(=O)CN(C)C(=O)CN(C)C1=O` [Compound 170] (cyclo([Aib]L[NMedβ3hAla][NMeA]I[Sar][Sar][NMePhe(4-Cl)][Sar][hPhe(4-CF3)]L)), the IC50 worked out at 350 nM. Under `CC[C@H](C)[C@@H]1NC(=O)[C@H](CC(C)C)N(C)C(=O)C[C@@H](C)NC(=O)[C@H](C(C)C)N(C)C(=O)C2(CCCC2)NC(=O)[C@@H]2CCCN2C(=O)[C@H](CCc2ccc(C(F)(F)F)c(Cl)c2)NC(=O)CN(C)C(=O)[C@H](CC2CCCCC2)N(C)C(=O)[C@@H]2CCN2C(=O)[C@@H]2CCN2C1=O` [Compound 181] (cyclo([Ac5c][NMeV][d(β3hA)][NMeL]I[Aze][Aze][NMeCha][Sar][hPhe(3-Cl-4-CF3)]P)) stands 130 nM; under `CC[C@H](C)[C@@H]1NC(=O)[C@H](CC(C)C)N(C)C(=O)C[C@@H](C(=O)N2CCCCC2)N(C)C(=O)[C@H](C2CCCC2)N(C)C(=O)C2(CCCC2)NC(=O)[C@@H]2CCCN2C(=O)[C@H](CCc2ccc(C(F)(F)F)c(Cl)c2)NC(=O)CN(C)C(=O)[C@H](C2CCCC2)N(C)C(=O)[C@@H]2CCN2C(=O)[C@H](C)N(C)C1=O` [Compound 182] ([NMeL]I[NMeA][Aze][NMeGly(cPent)][Sar][hPhe(3-Cl-4-CF3)]P[Ac5c][NMeGly(cPent)][NMeD]-Piperidide; lactam N-11), 0.98 nM. For `CC[C@H](C)[C@@H]1NC(=O)[C@H](C(C)C)N(C)C(=O)C[C@H]2CCCCN2C(=O)[C@H](CC(C)C)N(C)C(=O)C2(CCCC2)NC(=O)[C@H](CC(C)C)N(C)C(=O)[C@H](CCc2ccc(C(F)(F)F)cc2)NC(=O)CN(C)C(=O)[C@H](Cc2ccc(Cl)cc2)N(C)C(=O)CN(C)C(=O)CN(C)C1=O` [Compound 189] (cyclo([Ac5c][NMeL][dβ3hPip][NMeV]I[Sar][Sar][NMePhe(4-Cl)][Sar][hPhe(4-CF3)][NMeL])) the value was 110 nM; for `CC[C@H](C)[C@@H]1NC(=O)[C@H](CC(C)C)N(C)C(=O)C[C@@H](C(=O)N2CCCC2)N(C)C(=O)[C@H](C2CCCC2)N(C)C(=O)C2(CCCC2)NC(=O)[C@@H]2CCCN2C(=O)[C@H](CCc2ccc(C(F)(F)F)c(Cl)c2)NC(=O)CN(C)C(=O)[C@H](C2CCCC2)N(C)C(=O)[C@@H]2CCN2C(=O)[C@H](C)N(C)C1=O` [Compound 201] ([NMeL]I[NMeA][Aze][NMeGly(cPent)][Sar][hPhe(3-Cl-4-CF3)]P[Ac5c][NMeGly(cPent)][NMeD]-Pyrrolidide; lactam N-11), 0.58 nM; for `CC[C@H](C)[C@@H]1NC(=O)[C@H](CC(C)C)N(C)C(=O)C[C@@H](C)N(C)C(=O)[C@H](C2CCCCC2)N(C)C(=O)C2(CCC2)NC(=O)[C@@H]2CC(F)(F)CN2C(=O)[C@H](CCc2cc(F)c(C(F)(F)F)c(F)c2)NC(=O)CN(C)C(=O)[C@H](Cc2ccc(C(F)(F)F)cc2)N(CC)C(=O)[C@@H]2CCN2C(=O)[C@H](C)NC1=O` [Compound 203] (cyclo(A[Aze][NEtPhe(4-CF3)][Sar][hPhe(3,5-F2-4-CF3)][Pro(4,4-F2)][Ac4c][NMeChg][NMedβ3hAla][NMeL]I)), 31 nM. For `CC[C@H](C)[C@@H]1NC(=O)[C@H](CC(C)C)N(C)C(=O)C[C@@H](C)NC(=O)[C@H](C(C)C)N(C)C(=O)C2(CCCC2)NC(=O)[C@@H]2CCCN2C(=O)[C@H](CCc2ccc(C(F)(F)F)c(Cl)c2)NC(=O)CN(C)C(=O)[C@H](Cc2ccc(Cl)cc2)N(C)C(=O)[C@@H]2CCN2C(=O)CN(C)C1=O` [Compound 207] (cyclo([Ac5c][NMeV][d(β3hA)][NMeL]I[Sar][Aze][NMePhe(4-Cl)][Sar][hPhe(3-Cl-4-CF3)]P)) the value was 3 nM.

Values taken from US20240148821A1, “PHARMACEUTICAL USE OF CYCLIC PEPTIDE COMPOUND” (CHUGAI SEIYAKU KABUSHIKI KAISHA, priority 2021, published 2024).
